The subject of test [1] is vascular smooth muscles (HNB18E6E7 cell line). As to the kind of experiment: Migration of vascular smooth muscle cells into fibrin gel containing N-chlorsuccinimide. The class given is cell-based, human. The settings on record: 37° C., 24 hours. The procedure:
The vascular smooth muscles were collected from human vital arteries and established HNB18E6E7 was used as cell lines. The vascular smooth muscles were incubated in 6-well plates to produce confluent cultures. The resultant supernatant fluids were washed three time with warmed phosphate buffer solution (PBS) and softly added with 3 mg/mL of fibrinogen and 0.8 mL of Waymouth culture solution including 10 w/v % human serum. Then, the supernatant fluids were respectively added with N-chlorsuccinimide to adjust the final concentration of N-chlorsuccinimide to 0.08 mM, 0.8 mM, 8 mM and 80 mM, and gelled by addition of thrombin. The resultant gelled supernatants were incubated at 37° C. for 24 hours, and the numbers of the smooth muscle cells migrated into the gel was counted with a phase contrast microscope. For each concentration, the experiments were carried out to make n=3. The ordinate denotes the frequencies of migration of vascular smooth muscles into the gel, while the abscissa denotes the concentration of N-chlorsuccinimide.

Test [2] deals with right common iliac artery vascular injury model. Kind of test: Neointimal formation in vascular injury model (right common iliac artery 3-times balloon injury). The class given is in vivo, rabbits. The conditions noted are these: local administration by balloon immersed in 80 mM N-chlorsuccinimide vs PBS control; 4 weeks after treatment. The method, then:
There were used a group of animals consisted of 5 (five) […] male rabbits aged 2 months. Vascular injury models were prepared by introducing a Fogarty catheter, Model e-060-2F, made by Baxter corporation (that is an arterial embolectomy balloon catheter) into the right common iliac artery through the right femoral artery under pentobarbital anesthesia, and then abrading the right common iliac artery 3 times under conditions of the balloon being inflated (balloon pressure: 0.5-1.0 atm). After injuring the vascular endothelium, hydrophilic balloons made by Boston Scientific Corporation, of an N-chlorsuccinimide-treated group prepared by immersing the balloons in 80 mM N-chlorsuccinimide, and of a control group prepared by immersing the balloons in PBS, were respectively inflated in the right common iliac arteries to locally administer the drug to each injured area. After 4 weeks from the treatment, the arteries were surgically removed, fixed with 10w/v % neutral buffered formalin fixative and then sectioned to prepare arterial ring tissue sections. After preparing elastic fiber stained tissue samples by EVG (Elastic Van Gieson) staining, the samples were subjected to measurements of intimal area (I) and medial area (M) to determine their ratio (I/M) as the degree of intimal thickening. […]

Test [3] addresses T1, α2-macroglobulin (Homo sapiens, UniProt P01023).
T1 sequence (P01023 24-1474): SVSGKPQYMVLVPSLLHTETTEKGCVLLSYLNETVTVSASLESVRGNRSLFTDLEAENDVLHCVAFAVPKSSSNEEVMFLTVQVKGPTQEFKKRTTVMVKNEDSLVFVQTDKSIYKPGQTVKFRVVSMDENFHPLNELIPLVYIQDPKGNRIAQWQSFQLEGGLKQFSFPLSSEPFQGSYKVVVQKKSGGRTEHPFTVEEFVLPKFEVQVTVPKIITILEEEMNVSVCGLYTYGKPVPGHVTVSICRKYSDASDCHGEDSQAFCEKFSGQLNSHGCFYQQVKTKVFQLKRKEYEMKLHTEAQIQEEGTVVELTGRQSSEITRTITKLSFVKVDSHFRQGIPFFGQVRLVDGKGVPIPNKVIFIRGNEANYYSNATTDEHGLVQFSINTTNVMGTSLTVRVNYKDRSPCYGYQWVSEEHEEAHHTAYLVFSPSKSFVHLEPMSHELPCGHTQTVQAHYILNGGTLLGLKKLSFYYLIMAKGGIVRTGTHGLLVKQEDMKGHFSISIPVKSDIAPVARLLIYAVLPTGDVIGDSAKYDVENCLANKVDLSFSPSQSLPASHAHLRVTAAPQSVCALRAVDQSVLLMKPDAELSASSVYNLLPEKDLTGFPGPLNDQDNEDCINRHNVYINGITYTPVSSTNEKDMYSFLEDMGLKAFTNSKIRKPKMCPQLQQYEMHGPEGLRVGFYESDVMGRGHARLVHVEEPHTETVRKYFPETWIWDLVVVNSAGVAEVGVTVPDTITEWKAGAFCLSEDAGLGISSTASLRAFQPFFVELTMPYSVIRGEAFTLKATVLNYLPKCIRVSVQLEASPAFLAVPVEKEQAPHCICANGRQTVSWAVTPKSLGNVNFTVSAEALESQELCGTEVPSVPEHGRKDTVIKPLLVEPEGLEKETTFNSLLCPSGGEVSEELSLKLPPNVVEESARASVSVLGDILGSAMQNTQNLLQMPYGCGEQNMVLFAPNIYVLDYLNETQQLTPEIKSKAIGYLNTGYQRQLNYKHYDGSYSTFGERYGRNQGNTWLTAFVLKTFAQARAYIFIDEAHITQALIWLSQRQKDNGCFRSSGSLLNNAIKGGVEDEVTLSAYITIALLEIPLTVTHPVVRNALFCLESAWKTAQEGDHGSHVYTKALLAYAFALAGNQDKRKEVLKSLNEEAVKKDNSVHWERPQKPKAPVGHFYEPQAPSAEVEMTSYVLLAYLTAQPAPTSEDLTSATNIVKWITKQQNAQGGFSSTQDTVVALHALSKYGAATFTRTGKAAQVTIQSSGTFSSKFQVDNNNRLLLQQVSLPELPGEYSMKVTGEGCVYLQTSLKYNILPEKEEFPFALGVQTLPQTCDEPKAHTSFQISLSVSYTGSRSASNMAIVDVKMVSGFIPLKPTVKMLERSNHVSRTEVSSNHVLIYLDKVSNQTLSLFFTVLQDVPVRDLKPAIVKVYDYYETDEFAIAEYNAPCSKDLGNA
As to the kind of experiment: Deactivation of α2-macroglobulin (trypsin / coloring matrix S2222 assay, absorption at 405 nm). The class given is biochemical. The procedure: Utilizing the facts that trypsin is inhibited by α2-macroglobulin and that trypsin causes yellow coloring of a coloring matrix S2222 resulting from decomposition thereof, verification was carried out for effects of methylamine, ethylamine, polyethyleneimines with molecular weights of 600 and 10000, tobramycin, ammonia, lysozyme chloride and polylysine on deactivation of α2-macroglobulin. A concrete method will be given below.
Firstly, each of methylamine, ethylamine, polyethyleneimines with molecular weights of 600 and 10000, tobramycin, ammonia, lysozyme chloride and polylysine was diluted to 0.0001 w/v %, 0.001 w/v %, 0.01 w/v %, 0.1 w/v % and 1 w/v % to prepare a series of diluted solutions as sample solutions. 50 μL of each sample solution was added with 50 μL of 2.5×10^−4 w/v % α2-macroglobulin and left for 5 minutes at room temperature. Then, the sample solution was added with 50 μL of a 5 w/v % trypsin EDTA solution, left for 5 minutes at room temperature, and then added with 10 μL of the coloring matrix S2222. After leaving the resultant sample solution for 20 minutes at room temperature, the sample solution was added with 50 μL of 10 w/v % acetic acid solution to stop reactions, and then subjected to measurement of absorption of light with a wave length of 405 nm, using 50 mM tris(hydroxymethyl)aminomethane buffer solution of pH 8.0 as the blank. The dilution of all the samples and agents was carried out by a 50 mM tris(hydroxymethyl)aminomethane buffer solution of pH 8.0. Results are shown in FIG. 5, in which the ordinate denotes the deactivation rate of α2-macroglobulin, and the abscissa denotes the concentrations of respective compounds.

The mark [4] stands for this setting: compound concentration 0.1 w/v %.

As to `O=C1CCC(=O)N1Cl` [N-chlorsuccinimide], the “number of migrating vascular smooth muscles” value in test [1] (80 mM N-chlorsuccinimide in fibrin gel) is recorded as “vanished completely”. The “frequency of migration of the vascular smooth muscles into the gel” value in test [1] (N-chlorsuccinimide 0.08, 0.8, 8 and 80 mM in fibrin gel, n=3) is given as “decreases apparently with increasing concentration”. The “neointimal hyperplasia (degree of intimal thickening, I/M ratio)” value in test [2] was “considerably inhibited”. `CN` [methylamine]: in test [3] (compound concentration 1 w/v %), the “deactivation rate of α2-macroglobulin” value is on record as “about 100%”. Consider polylysine, for which the “deactivation rate of α2-macroglobulin” value in test [3] (setting [4]) is listed as 100%. Consider lysozyme chloride, for which the “deactivation rate of α2-macroglobulin” value in test [3] (setting [4]) came out at 100%.

Values taken from patent US20100003302A1, “VASCULAR RESTENOSIS PREVENTING AGENT AND IMPLANTABLE INTRAVASCULAR DEVICE COATED THEREWITH” (priority 2001, published 2010).
